Consider three molecules from ChEMBL document CHEMBL2074169, “Contribution of organic anion transporting polypeptide to uptake of its possible substrates into rat hepatocytes” (J Pharmacol Exp Ther, 1999).

Series [1] addresses T1, Solute carrier organic anion transporter family member 1A1 (Rattus norvegicus, UniProt P46720).
T1 sequence (P46720 whole entry): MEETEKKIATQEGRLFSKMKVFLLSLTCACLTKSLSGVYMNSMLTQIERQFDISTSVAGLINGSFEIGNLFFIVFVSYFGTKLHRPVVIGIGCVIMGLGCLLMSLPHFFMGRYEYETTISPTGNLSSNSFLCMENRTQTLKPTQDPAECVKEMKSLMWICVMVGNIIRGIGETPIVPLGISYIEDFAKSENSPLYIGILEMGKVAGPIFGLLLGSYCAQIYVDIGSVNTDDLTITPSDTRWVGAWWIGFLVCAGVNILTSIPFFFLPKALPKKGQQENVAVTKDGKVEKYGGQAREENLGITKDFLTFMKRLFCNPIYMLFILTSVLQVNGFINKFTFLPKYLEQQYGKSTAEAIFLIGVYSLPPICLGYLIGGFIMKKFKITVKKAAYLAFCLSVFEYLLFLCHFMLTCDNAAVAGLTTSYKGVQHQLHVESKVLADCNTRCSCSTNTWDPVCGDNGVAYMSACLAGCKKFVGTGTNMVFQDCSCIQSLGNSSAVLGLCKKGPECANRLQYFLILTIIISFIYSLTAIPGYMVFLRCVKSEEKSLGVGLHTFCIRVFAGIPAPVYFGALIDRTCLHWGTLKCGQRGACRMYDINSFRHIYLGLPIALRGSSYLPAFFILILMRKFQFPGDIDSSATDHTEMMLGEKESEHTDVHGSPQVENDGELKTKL
The series is described as follows: (§1) TP_TRANSPORTER: uptake in Oatp1-expressing COS-7 cells. The following applies: monkey. It is filed as functional, cell-based.

Substrate in series [2]: C[C@]12CC[C@@H]3c4ccc(O)cc4CC[C@H]3[C@@H]1CC[C@@H]2O[C@@H]1O[C@H](C(=O)O)[C@@H](O)[C@H](O)[C@H]1O
The description is as §1. The format is functional, cell-based.

Where a name gives a salt, the structure may show the parent alone.

Regarding `C[C@]12CC[C@@H]3c4ccc(OS(=O)(=O)O)cc4CC[C@H]3[C@@H]1CCC2=O` [ESTRONE SULFURIC ACID], in series [1], the Activity result was “substrate [+]”.
Same read-out and setting: in the case of `CNc1nc2c(Cc3cccnc3)c(C)c(OS(=O)(=O)O)c(C)c2s1` [E3040 SULFATE] it was “substrate [+]”.

B1: Solute carrier organic anion transporter family member 1A1 (Rattus norvegicus) (protein)
chain: T1 sequence (P46720 whole entry)
For B1, the Km in series [2] is 20.4 µM.
